Source: patent US20230250095A1, “BENZIMIDAZOLE DERIVATIVES, PREPARATION METHOD THEREFOR AND MEDICAL USE THEREOF” (TUOJIE BIOTECH(SHANGHAI) CO., LTD., priority 2020, published 2023)

Columns and labels:
[1] = In vivo pharmacokinetic experiment in rats, intragastric administration; details: SD rats, 5 mg/kg
Procedure: The drug concentrations in the plasma of the test animals (rats) at different time points after intragastric administration of the compound of the present disclosure were determined by an LC/MS/MS method. The pharmacokinetic behavior in rats of the compound of the present disclosure was studied and its pharmacokinetic profile was evaluated.
Male, healthy SD rats of SPF grade, 6-8 weeks old, 3 rats in each group.
Intragastric administration: a certain amount of compound was weighed and prepared into a 1 mg/mL white suspension by adding 0.5% by volume of hydroxypropyl methylcellulose, 0.1% by volume of tween 80 and 99.4% by volume of water.
SD rats were administered intragastrically with compound 4 or BLU-5937 at a dose of 5 mg/kg after fasting overnight.
Rats were administered intragastrically with the compound of the present disclosure. 0.2 mL of blood was collected from the jugular vein at 0.25 h, 0.5 h, 1 h, 2 h, 4 h, 8 h and 24 h after the administration, placed in a tube containing EDTA-K2, separated by centrifugation at 4° C. at 4000 rpm for 5 min to obtain plasma, which was stored at −75° C.
Determination of the content of the test compounds at different concentrations in the plasma of rats after intragastric administration: 50 μL of rat plasma at each time point after the administration was taken, 200 μL of a solution of internal standard dexamethasone (50 ng/mL) in acetonitrile was added thereto, and the mixture was vortexed for 30 s to be mixed well, centrifuged at 4° C. at 4700 rpm for 15 min. The supernatant of the plasma sample was subjected to 3-fold dilution with water, and 2.0 μL of the dilution was taken for LC/MS/MS analysis.

[2] = Caco-2 permeability assay; type: in vitro ADME; details: human
Procedure: The apparent permeability coefficient (Papp) of the analytical drug was determined by liquid chromatography-tandem mass spectrometry (LC/MS/MS) through a Caco-2 cell model.
The transfer rate of drug from the apical end to the basal end was determined. 108 μL of HBSS (25 mM HEPES, pH 7.4) containing 10 μM test compound was added to the apical end of the upper chamber of Transwell (purchased from Corning) containing Caco-2 cells (purchased from ATCC) at a density of 6.86×10^5 cells/cm^2, and meanwhile, 8 μL of the sample was added, as an initial dosing-end sample (A-B), to a new 96-well plate to which 72 μL of HBSS (25 mM HEPES, pH 7.4) and 240 μL of acetonitrile (containing 100 nM alprazolam, 200 nM caffeine and 100 nM tolbutamide) had been added, and the plate was vortexed at 1000 rpm for 10 min. 300 μL of HBSS (25 mM HEPES, pH 7.4) was added to the basal end.
The transfer rate of drug from the basal end to the apical end was determined. 308 μL of HBSS (25 mM HEPES, pH 7.4) containing 10 μM test compound was added to wells of the basal end of the plate, and meanwhile, 8 μL of the sample was added, as an initial dosing-end sample (B-A), to a new 96-well plate to which 72 μL of HBSS (25 mM HEPES, pH 7.4) and 240 μL of acetonitrile (containing 100 nM alprazolam, 200 nM caffeine and 100 nM tolbutamide) had been added. The plate was vortexed at 1000 rpm for 10 min, and 100 μL of HBSS (25 mM HEPES, pH 7.4) was added to the apical end.
The transfer rate from the apical end to the basal end and the transfer rate from the basal end to the apical end need to be determined simultaneously.
At the end of the transfer cycle, 8 μL of the sample was taken from the dosing end (apical end of A-B flow and basal end of B-A flow) and added to 72 μL of HBSS (25 mM HEPES, pH 7.4) and 240 μL of acetonitrile (containing 100 nM alprazolam, 200 nM caffeine and 100 nM tolbutamide), and the mixture was added to a new 96-well plate. 80 μL of the liquid was taken directly from each of the basal end of the A-B flow and the apical end of the B-A flow, and added together with 240 μL of acetonitrile (containing 100 nM alprazolam, 200 nM caffeine and 100 nM tolbutamide) to a new 96-well plate. The plates were vortexed at 1000 rpm for 10 min. The samples were centrifuged at 4000 rpm for 30 min. 100 μL of the supernatant was transferred to a new 96-well plate. All samples were analyzed by LC-MS/MS with 100 μL of pure water.
Data were calculated using Microsoft Excel and peak areas were calculated from the chromatograms. The apparent permeability coefficient (Papp) is in cm/s and is calculated using the following formula: […]
Papp is apparent permeability (cm/s×10^−6);
The outflow ratio can be determined by the following equation: […]

Structure (SMILES): CNC(=O)c1cc(F)c(-c2nc3cc(C)ccn3c2C[C@H]2CN(C(=O)OC)CCO2)c(F)c1 [BLU-5937, reference compound]
- V [1]: 1.09 L/kg
- Tmax ([1]; male, rat, plasma, po): 15 min
- half-life ([1]; male, rat, plasma, po): 174 min
- AUC(0-t) ([1]; male, rat, po, plasma): 361 ng·h/mL
- Cmax ([1]; male, rat, po, plasma): 151 ng/mL
- Papp A→B at 10 μM ([2]; Caco-2, 10 μM test compound, apical to basal, pH 7.4): 2.4 ×10⁻⁶ cm/s
- efflux ratio at 10 μM ([2]; Caco-2, Papp (B-A)/Papp (A-B), read-out: Outflow ratio): 1.2
